What was measured:
[1] = system: BMDM viability; test: Resazurin cell viability assay in BMDMs; format: cell-based, mouse; conditions: increasing doses up to 100 μM
Protocol: In order to better assess the potential cellular toxicity of DSHN-OMe, we treated BMDMs with increasing doses and measured their ability to reduce resazurin to resorufin (similar to the MTT viability assay).
Resazurin cell viability assay. 20,000 cells were seeded into 96 well f-bottom, black plates (Corning Costar) and cell viability was measured using 100 μL resazurin per well at 0.3 mg/mL (Acros Organics). The fluorescence signal was quantified by plate reader (560 nm excitation/590 nm emission) at 2-3 h.

[2] = system: RAW 264.7 cells; test: Compound uptake assay (LC-MS/MS); format: in vitro ADME; conditions: for Intracellular compound concentration, 4 h / Intracellular compound concentration, 8 h / Intracellular compound concentration, 24 h: 50 μM
Protocol: Conversion of a carboxylic acid to an ester is often associated with better cellular uptake. Therefore, we explored whether the kinetics of uptake differed between the two compounds, using RAW 264.7 cells as a model for myeloid immune cells. RAW 264.7 cells were treated with 50 μM of DSHN or DSHN-OME for 4, 8 or 24 h. At the appropriate time-point cells were washed and subjected to LC-MS/MS to quantify intracellular compound concentration. […] At 8 h, 12.6 nM DSHN was detected.
Compound Uptake Assay. Cellular uptake of DSHN and DSHN-OMe was determined in RAW 264.7 cells cultured in 60×15 mm tissue culture dishes. Cells were treated with vehicle (0.1% DMSO), 50 μM DSHN or 50 μM DSHN-OMe for 4 h, 8 h, or 24 h. After incubation, cells were harvested, washed with PBS and cell pellets were incubated at −80° C. freezer. Next, cell pellets were resuspended in 200 μL 70:30 MeOH:H2O and sonicated to lyse cells. Debris from lysed cell suspension was removed by centrifugation. Resulting supernatant was analyzed by LC-MS/MS.

[3] = system: 4T1 metastatic lesions; test: Outgrowth of established 4T1 lung metastatic lesions (intravenous graft); format: in vivo, mouse; conditions: for Outgrowth of 4T1 metastatic lesions, combined with αPDL1: compound combined with αPDL1; for Outgrowth of established 4T1 metastatic lesions, single agent: lesions established 3 d before treatment
Description: FIG. 3A-3F. DSHN, a tool small molecule agonist of NR0B2 reduces macrophage/dendritic cell induced Treg expansion and tumor growth in murine models. […] (B) Dendritic cells (left-CD11B^+; CD11C^+) and CD4^+ T cells (right) were isolated from MMTV-PyMT tumors by FACS, and treated with vehicle or DSHN for 3d. The resulting frequency of Treg (CD4^+; CD25^+; FoxP3^+) was quantified by flow cytometry (right graph), (N=3-5/group, t test). […] The percentage of divided CD8+ T cells in the second round was quantified. (D) DSHN increases efficacy of αPDL1 therapy on orthotopic E0771 tumors. An optimal number of E0771 cells were grafted into FoxP3-EGFP mice and allowed to grow until tumors reached 100 mm^3. Mice were euthanized on day 19 (waterfall plot, Fisher's exact test). (E) DSHN increases efficacy of αPDL1 therapy on orthotopic 4T1 tumors. 4T1 cells were orthotopically grafted into mice and allowed to establish for 5d prior to treatment start. Mice were euthanized on day 16 (waterfall plot, Fisher's exact test). (F) DSHN reduces metastatic outgrowth of 4T1 tumors and enhances efficacy of αPDL1 compared to placebo (p) (2-way ANOVA followed by Šidák's multiple comparison test for day 16). 4T1 cells were grafted intravenously, and lung metastatic lesions allowed to establish for 3d before treatment commenced. At the end of the study, lungs were removed and imaged ex vivo, quantified data indicated (N=10, 1-way ANOVA followed by Newman-Keuls multiple comparison test). Representative luciferase images shown to the right. * or different letters denote P<0.05 using indicated statistical test.
FIG. 7A-7I. DSHN-OMe reduces tumor and metastatic growth in murine models, in a myeloid cell-NR0B2 dependent manner. (A) E0771 cells were grafted into control mice (NR0B2^+/+; LysMCre^+) or mice where NR0B2 was knocked out in myeloid immune cells (NR0B2^fl/fl; LysMCre^+). 8 days post-graft, daily treatment with placebo or DSHN-OMe was initiated and subsequent tumor growth followed through time. Different letters denote statistical difference on the final measurement (day 21, 2-Way ANOVA followed by Šidák's post-hoc, N=5-8). (B) Waterfall plot illustration of data in (A) showing tumor volume at final day of measurement. Asterisk indicates significant difference (Chi-squared test, P<0.05). (C) Lewis Lung cells were grafted into control mice (NR0B2^+/+; LysMCre^+) or mice where NR0B2 was knocked out in myeloid immune cells (NR0B2^fl/fl; LysMCre^+). 10 days post-graft, daily treatment with placebo or DSHN-OMe was initiated and subsequent tumor growth followed through time. […] (G) EMT6 metastatic lungs were assessed for Ki67 mRNA and (H) FOXP3 mRNA. (I) EMT6 metastatic lungs were assessed for CD8+ cytotoxic T cells (CD8+). […]

[4] = system: inflammasome associated genes; test: Inflammasome associated gene expression in BMDMs (LPS, nigericin); format: cell-based, mouse
Protocol: FIG. 8A-8D. DSHN-OMe attenuates induction of inflammasome associated genes when BMDMs are treated with both LPS and nigericin, not LPS alone. * indicates P<0.05 when comparing to DMSO.
Inflammasome activation, RNA extraction, quantitative real PCR. When comparing inflammasome responses, BMDMs were treated with 500 ng/mL LPS for 4 h 37° C. in complete RPMI 1640. After 4 hr priming, 15 μM Nigericin was added for 45 mins at 37° C. Next, media was removed, washed with PBS and inflammasome activation was assessed using qPCR or inflammasome caspase-1 activity was measured using Caspase-Glo® 1 inflammasome assay kit (G9951; Promega) according to manufacturer's instructions.

SMILES: CCN(CC)S(=O)(=O)c1cccc2cc(C(=O)O)c(O)cc12 [DSHN, reference compound]
- BMDM viability (resazurin reduction) [1]: no significant difference was observed in viability up to 100 μM
- Intracellular compound concentration, 4 h [2]: below detection limits
- Intracellular compound concentration, 8 h [2]: 12.6 nM
- Intracellular compound concentration, 24 h [2]: no intracellular DSHN was detected
- Outgrowth of 4T1 metastatic lesions, combined with αPDL1 [3]: reduced outgrowth even further than DSHN alone
- Outgrowth of established 4T1 metastatic lesions, single agent [3]: slowed the growth of metastatic lesions
- Expression of inflammasome associated genes, priming and activation signal [4]: able to blunt the expression of inflammasome associated genes

SMILES: CCN(CC)S(=O)(=O)c1cccc2cc(C(=O)OC)c(O)cc12 [DSHN-OMe, Methyl 5-(N,N-diethylsulfamoyl)-3-hydroxy-2-naphthoate]
- BMDM viability (resazurin reduction) [1]: no significant difference was observed in viability up to 100 μM
- Difference in intracellular concentration, DSHN-OMe versus DSHN [2]: > 2 log
- Intracellular compound concentration, 4 h [2]: 7,481 nM
- Intracellular compound concentration, 8 h [2]: 19,279 nM
- Intracellular compound concentration, 24 h [2]: 11,089 nM
- Outgrowth of 4T1 metastatic lesions, combined with αPDL1 [3]: did not significantly influence the effects of DSHN-OMe
- Outgrowth of established 4T1 metastatic lesions, single agent [3]: significantly reduced the outgrowth of established 4T1 metastatic lesions
- Expression of inflammasome associated genes, priming and activation signal [4]: able to blunt the expression of inflammasome associated genes
